The numbers were not newly measured in US7135196B2, “Iron compositions” (Vitra Pharmaceuticals Limited, priority 2000, dated 2006), which cites them from elsewhere.

The structures appear in SMILES notation.

On to `O=C([O-])/C=C/C(=O)[O-].[Fe+2]` [fumarate, ferrous fumarate], for which the solubility in water entry was “poorly and slowly soluble”.
